Results published in US6562993B1, “Preservative compounds” (ISP Investments Inc., priority 2002, dated 2003).

Legend:
Assay in all cases: Minimum Inhibitory Concentration (MIC) Test, serial dilution
Format in all cases: cell-based
[1] = system: Aspergillus niger ATCC 16404; settings: A. niger; weight percent of active ingredients; propylene glycol solvent
Procedure: (§1) The Minimum Inhibitory Concentration (MIC) Test is an in vitro serial dilution procedure to assess antimicrobial activity. The MIC of a substance is the minimum concentration that will inhibit the growth of test organisms. Two species each of bacteria and fungi were included in the evaluation.
(§2) Cultiloop™ transfer cultures were used, and the bacteria were cultured on Brain Heart Infusion agar for 24 hours at 37° C. A saline suspension of each bacterial species was prepared and standardized on the spectrophotometer to the organism inoculum concentration. The yeast culture (Candida) was grown on a slant of Saboraud Dextrose agar for 48 hours at 27° C., and the slant was then washed with saline to prepare the inoculum. The mold culture (Aspergillus) was incubated for 7-10 days at 27° C. until sporulation occurred. The mold inoculum was prepared by washing the mature slant and harvesting the spores after filtration through sterile gauze.
(§3) The results are summarized in the Table below, where the concentrations refer to the weight percents of active ingredients.

[2] = system: Burkholderia cepacia ATCC 25416; settings: B. cepacia; weight percent of active ingredients; propylene glycol solvent
Procedure: as §1, §2, §3

[3] = system: Candida albicans ATCC 10231; settings: C. albicans; weight percent of active ingredients; propylene glycol solvent
Procedure: as §1, §2, §3

[4] = system: Staphylococcus aureus ATCC 6538; settings: S. aureus; weight percent of active ingredients; propylene glycol solvent
Procedure: as §1, §2, §3

SMILES	MIC Cidal [1] [%]	MIC Static [1] [%]	MIC Cidal [2] [%]	MIC Static [2] [%]	MIC Cidal [3] [%]	MIC Static [3] [%]	MIC Cidal [4] [%]	MIC Static [4] [%]
CC(Br)(C#N)CCC#N (stereo not shown) [Compound II, 2-bromo-2-methylglutaronitrile]	0.10	<0.05	<0.05	<0.05	<0.05	<0.05	0.10	<0.05
N#CCCC(Br)(C#N)CBr (stereo not shown) [Merguard ®, 1,2-dibromo-2,4-dicyanobutane]	<0.05	<0.05	<0.05	<0.05	<0.05	<0.05	<0.05	<0.05
